These results are taken from patent US7993687B2, “Compositions and methods for management of diabetes” (priority 2006, dated 2011).

In experiment [1] the test system is Insulin receptor substrate-I (Tyr941). The experiment is described as follows: Western blot of IRS-1 phosphorylation in H4IIE cells. It is filed as cell-based, rat. As to conditions: 6 minutes. Here is the method:
Tissue culture media, antibiotics, fetal bovine serum (FBS) and Nunc tissue culture plates were purchased from Invitrogen Canada Inc. (Burlington, Ontario, Canada, L7P 1A1). Insulin (Sigma-Aldrich Canada Ltd., Oakville, Ontario, Canada, L6H 6J8) was dissolved in water and added directly to cells at a concentration of 250 nM unless otherwise indicated. The BWE was prepared and analyzed as described in Example 1. Two μL of the BWE were added directly to cells unless otherwise indicated. This amount was chosen on the basis of equivalence to insulin. Myo-inositol (Sigma-Aldrich Canada Ltd.) and D-chiro-inositol (Industrial Research Ltd., Wellington, New Zealand) were dissolved in water at an equal concentration to the amounts present in the BWE (Table 3) and 2 μL of each solution (0.1% v/v final concentration) was added directly to cells.
Rat H4IIE hepatoma cells (American Type Culture Collection, CRL 1548) were cultured following the method disclosed by Yau et al., (1998, Eur. J. Biochem. 253: 91-1). The H4IIE cells were maintained in α-modified Eagle's media containing 10% FBS, 2 mM glutamine, 25 μg·mL^−1 streptomycin and 25 units·mL^−1 penicillin. Cells were plated and grown to 70% confluence. All cells were placed into serum-free medium for 72 h before addition of stimulating agents to ensure entry into a quiescent state. […]
Cellular protein extracts were prepared by addition of 200 μL 2×SDS/gel loading buffer (0.125 M Tris pH 6.8, 2% SDS, 10% glycerol) to H4IIE cells in 12-well culture dishes. The samples were briefly sonicated, and protein content measured using the BCA protein assay kit. […] HRP was detected using the ECL chemiluminescent system after the membranes had been washed four times.
Quantification of data obtained on film (Kodak X-omat) was accomplished with a GS800 imaging densitometer (Bio-Rad Laboratories) under nonsaturating conditions with local background subtraction. […]
In general terms: A western blot detects proteins with antibodies after separation by electrophoresis.

A further experiment has as its system H4IIE cells. The experiment is described as follows: 3H-deoxyglucose uptake by H4IIE cells. As to conditions: for 3H-deoxy-glucose uptake (basal) by H4IIE cells: insulin 10^-6 M, 2 μL (0.4% v/v) of BWE, D-CI or MI, versus untreated cells. Format: cell-based, rat. How it is done: Tissue culture media, antibiotics, fetal bovine serum (FBS) and Nunc tissue culture plates were purchased from Gibco-BRL (division of Invitrogen Canada Inc.). Insulin (Sigma-Aldrich Canada Ltd.) was dissolved in water and added directly to cells at a final concentration of 10^−6 M. The buckwheat extract was prepared and analyzed as in Example 1. Two μL of the buckwheat extract were added directly to cells unless otherwise indicated. Myo-inositol (Sigma Aldrich Canada Ltd.) and D-chiro-inositol (Industrial Research Ltd.) were dissolved in water at an equal concentration to the amounts present in the BWE (Table 3) and 2 μL of each solution was added directly to cells.
Rat H4IIE hepatoma cells (American Type Culture Collection, CRL 1548) were cultured as described in Example 3. Briefly, cells were maintained in α-modified Eagle's media containing 10% FBS, 2 mM glutamine, 50 μg·mL^−1 streptomycin and 50 μg·mL^−1 penicillin. Cells were plated and grown to 70% confluence. All cells were placed into serum-free medium for 72 h before addition of stimulating agents to ensure entry into a quiescent state.
^3H-deoxyglucose uptake was assayed using the method disclosed by Harrison et al. (1990, J. Biol. Chem. 265(10):5793-5801). Quiescent H4IIE cells, in 24-well culture dishes containing 1 mL serum-free medium, were washed three times with physiological salt solution (PSS) ([…], pH 7.4). Cells were placed into 0.5 mL PSS and pre-incubated with inhibitors for 10 minutes prior to the 20 minute stimulation with treatments (insulin, BWE, D-CI, MI). For all experiments, insulin was added at a concentration of 10^−6 M whereas 2 μL volumes of the BWE, D-CI, or MI (0.4% v/v final concentration) were added to cells unless otherwise indicated in figures. Sugar uptake was initiated by the addition of ^3H-deoxyglucose to a final assay concentration of 0.1 mM glucose (1 mCi/mL) and the cells were subsequently incubated for 5 minutes at 37° C. After two rapid washes with ice-cold PSS (0.5-1 mL/well), the cells were solubilized with 0.4 mL of 0.1% SDS, and ^3H was detected in 3 mL of EcoLume scintillant (MP Biomedicals Inc., Costa Mesa, Calif., USA, 92626).
Statistical significance between treatments was determined by one-way ANOVA and by Duncan's multiple range test for means testing (SAS v.9.1, SAS Institute Inc., Cary, N.C.). […] Data are expressed as the mean±SE.
Since insulin has the same effect, we compared the ability of BWE, insulin and two insulin-mimetic compounds (D-CI and MI) to stimulate glucose uptake by H4IIE hepatoma cells. […] Radio-labelled deoxyglucose was added to the medium and glucose uptake was determined by the detection of ^3H in cells.
Fractions (˜1.0 ml) from each solvent extraction were collected and assayed for their effects on MAPK activation as described in Example 3. The effects of selected fractions, alone or in combination with insulin, on the uptake of labelled glucose were assessed following the methods described in Example 4. […] The effects of the solvent fractions on H4IIE cells were assessed with 20-min exposure periods after which, sugar uptake was initiated by the addition of ^3H-deoxyglucose to a final assay concentration of 0.1 mM glucose (1 mCi/mL) and the cells were subsequently incubated for 5 minutes at 37° C. After two rapid washes with ice-cold PSS (0.5-1 mL/well), the cells were solubilized with 0.4 mL of 0.1% SDS, and ^3H was detected in 3 mL of EcoLume scintillant. […]

Take `O[C@H]1[C@H](O)[C@@H](O)[C@H](O)[C@@H](O)[C@H]1O` [MI, myo-inositol]: the “phosphorylation of IRS-1” value in experiment [1] was “do not provide comparable stimulation”. In the experiment with H4IIE cells, the “3H-deoxy-glucose uptake (basal) by H4IIE cells” value (from here on “3H-deoxy-glucose uptake (basal)”) is “not statistically different from untreated cells”.

On to `OC1C(O)C(O)C(O)C(O)C1O` [D-CI, D-chiro-inositol], for which the “phosphorylation of IRS-1” value in experiment [1] is recorded as “do not provide comparable stimulation”. Also, in the experiment on H4IIE cells, the “3H-deoxy-glucose uptake (basal)” value was “stimulated glucose uptake”.

Consider “insulin: Insulin (Sigma-Aldrich) dissolved in water, positive comparator”, for which the “phosphorylation of IRS-1” value in experiment [1] is reported as “phosphorylated in response to insulin”. Moreover, in the experiment on H4IIE cells, the “3H-deoxy-glucose uptake (basal)” value is given as “stimulated glucose uptake”.

As for `COc1cccc(-c2cc(=O)c3ccccc3o2)c1N` [PD98059], the “effect of the inhibitor on insulin-stimulated glucose uptake (FIG. 23)” value with H4IIE cells (H4IIE cells, pre-incubated with inhibitor, then insulin) is given as “decreased insulin-stimulated glucose uptake”.
